Reference: article PMC10000267, “ALA‐A2 Is a Novel Anticancer Peptide Inspired by Alpha‐Lactalbumin: A Discovery from a Computational Peptide Library, In Silico Anticancer Peptide Screening and In Vitro Experimental Validation” (Global Challenges, 2023)
Residues, ends and D or L forms follow the SMILES beside them.

Legend:
[1] = system: A549 lung adenocarcinoma cells; test: In vitro cancer cytotoxicity (MTT assay); format: cell-based, human; conditions: A549, peptide 200 µM, 24 h
Description: (§1) All cell lines were obtained from the American Type Culture Collection (ATCC, Manassas, VA, USA). The A549 lung adenocarcinoma (ATCC CCL‐185TM), MDA‐MB‐231 triple‐negative breast adenocarcinoma (ATCC HTB‐26TM), and SH‐SY5Y neuroblastoma (ATCC CRL‐2266TM) cell lines were cultured in Dulbecco's Modified Eagle's Medium (DMEM)‐high glucose (Gibco, Thermo Fisher Scientific, MA, USA). HT29 colon adenocarcinoma (ATCC HTB‐38) cell lines were maintained in DMEM/Nutrient Mixture F‐12 (Gibco). K562 chronic myeloid leukemia (ATCC CRL‐3344) were grown in Roswell Park Memorial Institute Medium 1640 (Gibco). The cells were cultured in medium supplemented with 10% fetal bovine serum (Gibco) and 1× penicillin/streptomycin (Gibco) and incubated in a 5% CO2 incubator with saturated humidity.
(§2) The protocol previously described by Chiangjong et al. and Baindara et al.^[ [5], [29] ^] was modified for use in determining the cytotoxicity of peptides on the various cancer types. Adherent cells were seeded at 1 × 10^4 cells/well into a 96‐well plate 24 h prior to replacing the media containing the peptide of interest. Suspended cells were seeded at 1 × 10^4 cells/well in the media containing the peptide of interest. Five human cell lines, including lung cancer (A549), colon cancer (HT29), breast cancer (MDA‐MB‐231), neuroblastoma (SH‐SY5Y), and leukemia (K562) cells, were treated with the culture media containing the peptides at 200 µM for 24 h. Cell viability was then determined using Cell Proliferation Kit I, MTT (Roche Diagnostics GmbH, Mannheim, Germany): MTT labeling reagent (10 µL) was added to each well and incubated at 37 °C in a 5% CO2 atmosphere for 4 h. After incubation, 100 µL solubilizing solution was added to each well and incubated at 37 °C in 5% CO2 overnight. The absorbance at 570 nm (A 570) was measured for each well. The percentage of cell viability was calculated as: (1) % Cell Viability=[A570 of treated cells − A570 of media/A570 of untreated cells−A570 of media] × 100
(§3) To evaluate dose‐dependency, ≈1 × 10^4 cells/well were cultured in media containing ALA‐A2 at 0, 6.25, 12.5, 25, 50, 100, 200, and 400 µM in a 96‐well plate for 24 h. Cell viability was determined by the MTT assay, as above.

[2] = system: HT29 colon adenocarcinoma cells; test: In vitro cancer cytotoxicity (MTT assay); format: cell-based, human; conditions: HT29, peptide 200 µM, 24 h
Description: as §1, §2, §3

K562 leukemia cells = test: In vitro cancer cytotoxicity (MTT assay); format: cell-based, human; conditions: K562, peptide 200 µM, 24 h
Description: as §1, §2

[3] = system: MDA‐MB‐231 breast cancer cells; test: In vitro cancer cytotoxicity (MTT assay); format: cell-based, human; conditions: MDA‐MB‐231, peptide 200 µM, 24 h
Description: as §1, §2

[4] = system: SH‐SY5Y neuroblastoma cells; test: In vitro cancer cytotoxicity (MTT assay); format: cell-based, human; conditions: peptide 200 µM, 24 h
Description: as §1, §2

Human red blood cells = test: Ex vivo hemolysis assay (RBC lysis assay); format: cell-based; conditions: peptide 200 µM, 1 h; for percent hemolysis: ≈0.8% v/v human RBC suspension in 0.9% normal saline, room temperature, absorbance 415 nm, relative to 1% Triton X‐100, blood of three healthy individuals, mean ± SD
Description: The hemolysis assay was as described previously.^[ [30] ^] After informed consent, peripheral blood (3 mL) was collected from three healthy individuals into heparin tubes (BD Biosciences, NJ, USA). The specimen was centrifuged at 2000 × g for 5 min at room temperature, and the plasma was discarded. The RBCs were washed twice with PBS and then resuspended in 0.9% normal saline solution at a volume equivalent to that of the original plasma. Approximately 0.8% v/v RBC suspension was incubated with the peptides at 200 µM (100 µL final volume) in a U‐bottom 96‐well plate at room temperature for 1 h with agitation. 1% v/v Triton X‐100 was applied as a positive control. The untreated condition served as the blank control. After 1 h incubation, the supernatants were collected by centrifuging at 2000 × g for 5 min at room temperature. The absorbance of hemoglobin in the supernatant was measured at 415 nm. The hemolysis percentage was calculated as follows: (2) % Hemolysis = [sample absorbance−blank control/positive control−blank control] × 100

A549 lung cancer cells = test: Confocal microscopy: cell internalization and membrane integrity (PI); format: cell-based, human; conditions: A549, peptide 200 µM 24 h, Triton X‐100 0.5% v/v 10 min, PI staining
Description: All cells were then incubated with PI (1:2000) and Hoechst 33342 (1:5000) in the culture medium at 37 °C in 5% CO2 for 15 min. The cells were washed with PBS twice before being fixed with 4% paraformaldehyde (PFA) in PBS. The fixed cells were washed twice with PBS and mounted in 20% glycerol in PBS. […] Thereafter, the cells were stained with PI for 15 min at room temperature, washed with PBS, and then mounted with 20% glycerol in PBS. Internalization was visualized by confocal fluorescence microscopy (Nikon Instruments, Inc., Melville, NY, USA).

Molecule	anticancer effect (in words) [1]	anticancer effect (in words) [2]	anticancer effect (in words) (K562 leukemia cells)	anticancer effect (in words) [3]	anticancer effect (in words) [4]	percent hemolysis (Human red blood cells)	hemolytic effect (in words) (Human red blood cells; human RBCs, Triton X‐100 1% v/v)	membrane integrity / propidium iodide internalization (in words) (A549 lung cancer cells)
CC[C@H](C)[C@H](NC(=O)CNC(=O)[C@@H](NC(=O)[C@H](CC(C)C)NC(=O)[C@H](Cc1ccccc1)NC(=O)[C@H](CC(C)C)NC(=O)[C@@H]1CCCN1C(=O)[C@@H](NC(=O)[C@H](Cc1ccccc1)NC(=O)[C@H](Cc1ccccc1)NC(=O)[C@@H](N)CCCNC(=N)N)C(C)C)C(C)C)C(=O)N[C@@H](CC(C)C)C(=O)N[C@@H](Cc1ccccc1)C(=O)N1CCC[C@H]1C(=O)N[C@@H](C)C(=O)N[C@H](C(=O)N[C@@H](CC(C)C)C(=O)N[C@@H](C)C(=O)N[C@@H](CCCCN)C(=O)N[C@@H](CCC(N)=O)C(=O)N[C@@H](Cc1ccccc1)C(=O)N[C@H](C(=O)N[C@@H](CCCCN)C(=O)O)[C@@H](C)O)[C@@H](C)CC [ALA‐A1] (H-RFFVPLFLVGILFPAILAKQFTK-OH)	did not exhibit a substantial anticancer effect	did not exhibit a substantial anticancer effect	did not exhibit a substantial anticancer effect	did not exhibit a substantial anticancer effect	did not exhibit a substantial anticancer effect	5.6% ± 0.6%		
CC[C@H](C)[C@H](NC(=O)CNC(=O)[C@@H](NC(=O)[C@H](CC(C)C)NC(=O)[C@H](Cc1ccccc1)NC(=O)[C@H](CC(C)C)NC(=O)[C@@H]1CCCN1C(=O)[C@@H](NC(=O)[C@H](Cc1ccccc1)NC(=O)[C@H](Cc1ccccc1)NC(=O)[C@@H](N)CCCNC(=N)N)C(C)C)C(C)C)C(=O)N[C@@H](CC(C)C)C(=O)N[C@@H](Cc1ccccc1)C(=O)N1CCC[C@H]1C(=O)N[C@@H](C)C(=O)N[C@H](C(=O)N[C@@H](CC(C)C)C(=O)N[C@@H](C)C(=O)N[C@@H](CCCCN)C(=O)N[C@@H](CCC(N)=O)C(=O)N[C@@H](Cc1ccccc1)C(=O)N[C@H](C(=O)N[C@@H](CCCCN)C(=O)N[C@@H](CS)C(=O)O)[C@@H](C)O)[C@@H](C)CC [ALA‐A3] (H-RFFVPLFLVGILFPAILAKQFTKC-OH)	did not exhibit a substantial anticancer effect	did not exhibit a substantial anticancer effect	did not exhibit a substantial anticancer effect	did not exhibit a substantial anticancer effect	did not exhibit a substantial anticancer effect	1.3% ± 1.2%		
CC[C@H](C)[C@H](NC(=O)[C@H](CCC(N)=O)NC(=O)[C@H](Cc1ccccc1)NC(=O)[C@@H](N)CC(C)C)C(=O)N[C@@H](CO)C(=O)N[C@@H](CC(N)=O)C(=O)N[C@@H](CCCCN)C(=O)N[C@@H](CC(C)C)C(=O)N[C@@H](Cc1c[nH]c2ccccc12)C(=O)N[C@@H](CS)C(=O)N[C@@H](CCCCN)C(=O)N[C@@H](CO)C(=O)N[C@@H](CO)C(=O)N[C@@H](CCC(N)=O)C(=O)N[C@H](C(=O)N1CCC[C@H]1C(=O)N[C@@H](CCC(N)=O)C(=O)N[C@@H](CO)C(=O)N[C@@H](CCCNC(=N)N)C(=O)N[C@@H](CC(N)=O)C(=O)O)C(C)C [ALA‐A4] (H-LFQISNKLWCKSSQVPQSRN-OH)	did not exhibit a substantial anticancer effect	did not exhibit a substantial anticancer effect	did not exhibit a substantial anticancer effect	did not exhibit a substantial anticancer effect	did not exhibit a substantial anticancer effect	0.7% ± 0.6%		
CC[C@H](C)[C@H](NC(=O)[C@H](CO)NC(=O)[C@@H]1CCCN1C(=O)[C@H](C)NC(=O)CNC(=O)[C@H](CC(C)C)NC(=O)[C@H](CCCCN)NC(=O)[C@H](CCCCN)NC(=O)[C@H](CCSC)NC(=O)[C@H](CCCNC(=N)N)NC(=O)[C@H](Cc1c[nH]c2ccccc12)NC(=O)[C@H](CCC(N)=O)NC(=O)[C@H](Cc1c[nH]c2ccccc12)NC(=O)[C@H](CCCNC(=N)N)NC(=O)[C@H](CCCNC(=N)N)NC(=O)[C@H](CS)NC(=O)[C@H](CCCCN)NC(=O)[C@@H](N)Cc1ccccc1)C(=O)N[C@H](C(=O)N[C@@H](CS)C(=O)N[C@H](C(=O)N[C@@H](CCCNC(=N)N)C(=O)O)C(C)C)[C@@H](C)O [BMP‐S6, reference compound]			exhibited cancer cytotoxicity					
Triton X‐100 [reference compound]							completely lysed	is internalized
